Experimental data taken from patent US9730938B2, “Bruton's tyrosine kinase inhibitor combinations and uses thereof” (Pharmacyclics LLC, priority 2014, dated 2017).

Legend:
Jeko cells = assay: 3-day CellTiter Glow combination study in Jeko cells with wild-type or mutant CARD11; assay type: cell-based; details: FIG. 6
Description: (§1) Jeko cells, a MCL cell line, and OCI-Ly3, a DLBCL cell line, were used for this experiment.
(§2) In summary, 10,000 cells were plated into 96-well plates and treated with different concentrations of inhibitors. 3 days later, CellTiter Glow reagent was added into the wells and the luminescent signals were measured.

OCI-Ly3 cells = assay: 3-day CellTiter Glow combination study in OCI-Ly3 cells; assay type: cell-based; details: in combination with ibrutinib; FIG. 7
Description: as §1, §2

CARD11 / NF-κB pathway = assay: Western blot analysis, Jeko cells containing CARD11 L225LI (mut10); assay type: cell-based; details: FIG. 8
Description: The cell lysates were prepared from the cells which were treated with different concentrations of inhibitors for overnight incubation. Antibodies that correlate to the proteins of interest were used for detection.

SU-DHL-2 = assay: Combined drug treatment cell viability, CellTiter-Glo assay (Example 1); assay type: cell-based; details: 3 days
Description: (§3) DLBCL cells at either 1×10^4 cells or 2×10^4 cells were plated onto each well of a 96-W plate (Table 1).
(§4) The stock solutions for the IDH1 inhibitor AGI5198 and the MALT1 inhibitor MI-2 were each prepared at 50 mM concentration.
(§5) The 96-W plate was then incubated for 3 days. Cell viability was examined using a CellTiter-Glo assay.
(§6) A 40 μL of CellTiter-Glo reagent was added directly into each well of the 96-W plate. The plate was then shaken on a Shaker (Labsystem Wellmix) at speed 5 for 10-20 min at room temperature. Next, 100 μL of the mixed medium was transferred to a white, non-transparent, flat bottom 96-W plate for assaying. A Flexstation 3 luminometer was used for detecting and measuring the luminescent signals. Measurements were taken at room temperature.
(§7) In general, the combination is described as synergistic (CI<1), additive (CI=1), or antagonistic (CI>1). Synergism is further separated into very strong synergism (<0.1), strong synergism (0.1-0.3), synergism (0.3-0.7), moderate synergism (0.7-0.85), and slight synergism (0.85-0.9).

OCI-LY-10 = assay: as above; assay type: cell-based; details: 3 days
Description: as §3, §4, §5, §6, §7

OCI-LY-3 = assay: as above; assay type: cell-based; details: 3 days
Description: as §3, §4, §5, §6, §7

TMD8 = assay: as above; assay type: cell-based; details: 3 days
Description: as §3, §4, §5, §6, §7

U2932 = assay: as above; assay type: cell-based; details: 3 days
Description: as §3, §4, §5, §6, §7

ABC-DLBCL cells = details: Ferch et al. 2009; Hailfinger et al. 2009; cited from earlier work
[1] = ibrutinib 0 nM, IDH1i 10 uM / MALT1i 200 nM alone
[2] = ibrutinib 0.0256 nM, IDH1i 10 uM / MALT1i 200 nM / medium alone
[3] = ibrutinib 0.128 nM, IDH1i 10 uM / MALT1i 200 nM / medium alone
[4] = ibrutinib 0.64 nM, IDH1i 10 uM / MALT1i 200 nM / medium alone
[5] = ibrutinib 3.2 nM, IDH1i 10 uM / MALT1i 200 nM / medium alone
[6] = ibrutinib 16 nM, IDH1i 10 uM / MALT1i 200 nM / medium alone
[7] = ibrutinib 80 nM, IDH1i 10 uM / MALT1i 200 nM / medium alone
[8] = ibrutinib 400 nM, IDH1i 10 uM / MALT1i 200 nM / medium alone
[9] = ibrutinib 2000 nM, IDH1i 10 uM / MALT1i 200 nM / medium alone
[10] = ibrutinib 10000 nM, IDH1i 10 uM / MALT1i 200 nM / medium alone
[11] = ibrutinib 0 nM, IDH1i 10 uM / MALT1i 5 uM alone
[12] = ibrutinib 0.0256 nM, IDH1i 10 uM / MALT1i 5 uM / medium alone
[13] = ibrutinib 0.128 nM, IDH1i 10 uM / MALT1i 5 uM / medium alone
[14] = ibrutinib 0.64 nM, IDH1i 10 uM / MALT1i 5 uM / medium alone
[15] = ibrutinib 3.2 nM, IDH1i 10 uM / MALT1i 5 uM / medium alone
[16] = ibrutinib 16 nM, IDH1i 10 uM / MALT1i 5 uM / medium alone
[17] = ibrutinib 80 nM, IDH1i 10 uM / MALT1i 5 uM / medium alone
[18] = ibrutinib 400 nM, IDH1i 10 uM / MALT1i 5 uM / medium alone
[19] = ibrutinib 2000 nM, IDH1i 10 uM / MALT1i 5 uM / medium alone
[20] = ibrutinib 10000 nM, IDH1i 10 uM / MALT1i 5 uM / medium alone

## CC(C)C[C@H](NC(=O)[C@H](CCc1ccccc1)NC(=O)CN1CCOCC1)C(=O)N[C@@H](Cc1ccccc1)C(=O)N[C@@H](CC(C)C)C(=O)[C@@]1(C)CO1 [Carfilzomib]
Jeko cells
  sensitization of Jeko cells containing the mutant CARD11 to ibrutinib treatment: sensitized
OCI-Ly3 cells
  sensitization of OCI-Ly3 cells: sensitized

## COCCOc1nc(-c2ccc(Cl)c(Cl)c2)n(-c2ccc(NC(=O)CCl)cc2)n1 [MI-2]
CARD11 / NF-κB pathway
  effect on NF-κB pathway together with ibrutinib: in some instances synergize with ibrutinib to inhibit the NF-κB pathway
CARD11 / NF-κB pathway; overnight incubation
  effect on CARD11 protein: cause degradation of CARD11
Jeko cells
  sensitization of Jeko cells containing the mutant CARD11 to ibrutinib treatment: sensitized
SU-DHL-2; [1]
  luminescence (CellTiter-Glo): 131429.7
SU-DHL-2; [2]
  luminescence (CellTiter-Glo): 127667.9
SU-DHL-2; [3]
  luminescence (CellTiter-Glo): 145168.7
SU-DHL-2; [4]
  luminescence (CellTiter-Glo): 148058.4
SU-DHL-2; [5]
  luminescence (CellTiter-Glo): 156036.5
SU-DHL-2; [6]
  luminescence (CellTiter-Glo): 153735.3
SU-DHL-2; [7]
  luminescence (CellTiter-Glo): 154662.6
SU-DHL-2; [8]
  luminescence (CellTiter-Glo): 152400.8
SU-DHL-2; [9]
  luminescence (CellTiter-Glo): 151552.3
SU-DHL-2; [10]
  luminescence (CellTiter-Glo): 61725.8
OCI-LY-10; [11]
  luminescence (CellTiter-Glo): 19317.19
OCI-LY-10; [12]
  luminescence (CellTiter-Glo): 21817.96
OCI-LY-10; [13]
  luminescence (CellTiter-Glo): 17802.53
OCI-LY-10; [14]
  luminescence (CellTiter-Glo): 16971.57
OCI-LY-10; [15]
  luminescence (CellTiter-Glo): 13413.69
OCI-LY-10; [16]
  luminescence (CellTiter-Glo): 7749.49
OCI-LY-10; [17]
  luminescence (CellTiter-Glo): 9592.85
OCI-LY-10; [18]
  luminescence (CellTiter-Glo): 9064.30
OCI-LY-10; [19]
  luminescence (CellTiter-Glo): 10110.89
OCI-LY-10; [20]
  luminescence (CellTiter-Glo): 9734.85
OCI-LY-3; [11]
  luminescence (CellTiter-Glo): 23290.74
OCI-LY-3; [12]
  luminescence (CellTiter-Glo): 25371.59
OCI-LY-3; [13]
  luminescence (CellTiter-Glo): 26368.71
OCI-LY-3; [14]
  luminescence (CellTiter-Glo): 24778.56
OCI-LY-3; [15]
  luminescence (CellTiter-Glo): 26610.12
OCI-LY-3; [16]
  luminescence (CellTiter-Glo): 27654.48
OCI-LY-3; [17]
  luminescence (CellTiter-Glo): 27617.74
OCI-LY-3; [18]
  luminescence (CellTiter-Glo): 25227.27
OCI-LY-3; [19]
  luminescence (CellTiter-Glo): 26843.66
OCI-LY-3; [20]
  luminescence (CellTiter-Glo): 23784.06
TMD8; ibrutinib 0 nM, IDH1i 10 uM / MALT1i 100 nM alone
  luminescence (CellTiter-Glo): 71955.73
TMD8; ibrutinib 0.0256 nM, IDH1i 10 uM / MALT1i 100 nM / medium alone
  luminescence (CellTiter-Glo): 26784.40
TMD8; ibrutinib 0.128 nM, IDH1i 10 uM / MALT1i 100 nM / medium alone
  luminescence (CellTiter-Glo): 23958.89
TMD8; ibrutinib 0.64 nM, IDH1i 10 uM / MALT1i 100 nM / medium alone
  luminescence (CellTiter-Glo): 25405.91
TMD8; ibrutinib 3.2 nM, IDH1i 10 uM / MALT1i 100 nM / medium alone
  luminescence (CellTiter-Glo): 24014.24
TMD8; ibrutinib 16 nM, IDH1i 10 uM / MALT1i 100 nM / medium alone
  luminescence (CellTiter-Glo): 22888.78
TMD8; ibrutinib 80 nM, IDH1i 10 uM / MALT1i 100 nM / medium alone
  luminescence (CellTiter-Glo): 22045.34
TMD8; ibrutinib 400 nM, IDH1i 10 uM / MALT1i 100 nM / medium alone
  luminescence (CellTiter-Glo): 21591.99
TMD8; ibrutinib 2000 nM, IDH1i 10 uM / MALT1i 100 nM / medium alone
  luminescence (CellTiter-Glo): 21278.34
TMD8; ibrutinib 10000 nM, IDH1i 10 uM / MALT1i 100 nM / medium alone
  luminescence (CellTiter-Glo): 9754.88
U2932; [1]
  luminescence (CellTiter-Glo): 54720.82
U2932; [2]
  luminescence (CellTiter-Glo): 48183.41
U2932; [3]
  luminescence (CellTiter-Glo): 46995.03
U2932; [4]
  luminescence (CellTiter-Glo): 49419.22
U2932; [5]
  luminescence (CellTiter-Glo): 48821.08
U2932; [6]
  luminescence (CellTiter-Glo): 44565.57
U2932; [7]
  luminescence (CellTiter-Glo): 47234.82
U2932; [8]
  luminescence (CellTiter-Glo): 41263.93
U2932; [9]
  luminescence (CellTiter-Glo): 45695.98
U2932; [10]
  luminescence (CellTiter-Glo): 31838.57

## Z-VRPR-FMK
ABC-DLBCL cells
  effect on ABC-DLBCL cells: exerts toxic effects
